{"source": "patent US10912759B2", "about": "(priority 2018, dated 2021)", "key": {"S. aureus": {"test_system": "S. aureus", "test": "MIC and MBC of topical gel vs. Mupirocin", "format": "cell-based, Staphylococcus aureus", "settings": "0-10% w/v, overnight at 37° C., aliquots plated, lack of any growth", "description": "MIC was determined by visually observing where turbid growth stopped, MBC was determined by taking aliquots from each tube, plating onto media, and observation for lack of any growth.\nMupirocin is the standard ointment for treatment of S. aureus topical infections. […] MIC was determined by visually observing where turbid growth stopped, MBC was determined by taking aliquots from each tube, plating onto media, and observation for lack of any growth."}, "SprX": {"test_system": "SprX", "format": "cell-based, S. aureus", "settings": "1% (w/v), one hour, RNA level by RT-PCR", "excerpt": "(§1) FIG. 10 is a graph showing the effect of the topical gel on S. aureus gene expression compared to mupirocin treatment. Results are expressed as percent change in intensity values.\n(§2) FIG. 11 is a graph showing the effect of the topical gel on S. aureus gene expression compared to control and mupirocin treatment. Results are expressed as gene expression intensity ratios.\n(§3) In an effort to elucidate the mechanism of action of the topical gel on S. aureus as well as to examine any commonalities or differences in Staphylococcal response to treatment, transcriptional response was evaluated. S. aureus was either 1) grown alone as a control, 2) grown in 1% (w/v) topical gel, or 3) grown in 1% (w/v) Mupirocin for one hour. Cells were harvested and total RNA was extracted. Reverse Transcriptase polymerase chain reaction using gene specific primers was utilized to determine the RNA levels for the specific genes RecA, SprX, and PsrA. RecA is a protein specific for SOS response in Staphylococcus indicative of a need to repair DNA damage. SprX is a small RNA associated with Staphylococcus antibiotic resistance. PsrA regulates expression of proteins in the cell wall of Staphylococcus which are both essential for bacterial survival and antibiotic resistance."}, "PsrA": {"test_system": "PsrA", "test": "S. aureus gene expression by RT-PCR", "format": "cell-based", "settings": "1% (w/v), one hour, RNA level by RT-PCR", "excerpt": "as §1, §2, §3"}}}
{"smiles": "C/C(=C\\C(=O)OCCCCCCCCC(=O)O)C[C@@H]1OC[C@H](C[C@@H]2O[C@H]2[C@@H](C)[C@H](C)O)[C@@H](O)[C@H]1O", "note": "[Mupirocin]", "values": [{"measurement": "MBC values compared to topical gel", "setting": "S. aureus", "result": "lower MBC values"}, {"measurement": "reduction of expression of SprX", "setting": "SprX", "result": 78, "unit": "%"}, {"measurement": "reduction of expression of PsrA", "setting": "PsrA", "result": 56, "unit": "%"}]}
